Structures can show the parent of a compound that is named as a salt.

The subject of one assay is Acinetobacter baumannii ATCC 17961. As to the kind of experiment: Antimicrobial susceptibility testing: 90% growth inhibitory concentration (IC90) determination. The class given is cell-based. Conditions: ATCC17961, Acinetobacter baumannii ATCC 17961, Iso-Sensitest broth, read-out: ATCC 17961 IC90. A digest of the protocol: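 Growth was followed kinetically by OD600 at 20-min intervals for 16 h at 35±2 °C, with ~5×10^5 CFU/ml in Iso-Sensitest broth. Compounds were tested as twofold dilutions (e.g. 50–0.097 μM final). The concentration giving 90% inhibition of log-phase growth was reported.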
For `Cn1c(-c2cn(CC(F)F)nc2C(F)(F)F)cnc1C(=O)Nc1ccc(C(=O)N2CCN(C(=O)NC3CNC3)CC2)c(Cl)c1` [Example 146, N-(azetidin-3-yl)-4-[2-chloro-4-[[5-[1-(2,2-difluoroethyl)-3-(trifluoromethyl)pyrazol-4-yl]-1-methylimidazole-2-carbonyl]amino]benzoyl]piperazine-1-carboxamide;formic acid], the IC90 was 434 nM.

On to `C=CCn1cc(-c2cnc(C(=O)Nc3ccc(C(=O)N4CCN(C(=O)NC5CNC5)CC4)c(Cl)c3)n2C)c(C(F)(F)F)n1` [Example 147, N-(azetidin-3-yl)-4-[2-chloro-4-[[1-methyl-5-[1-prop-2-enyl-3-(trifluoromethyl)pyrazol-4-yl]imidazole-2-carbonyl]amino]benzoyl]piperazine-1-carboxamide], for which the IC90 stood at 289 nM.

As for `Cn1c(-c2cn(CC(F)(F)F)nc2C(F)(F)F)cnc1C(=O)Nc1ccc(C(=O)N2CCN(C3=NC(CN)CO3)CC2)c(Cl)c1` (stereo not shown) [Example 148, N-[4-[4-[4-(aminomethyl)-4,5-dihydro-1,3-oxazol-2-yl]piperazine-1-carbonyl]-3-chlorophenyl]-1-methyl-5-[1-(2,2,2-trifluoroethyl)-3-(trifluoromethyl)pyrazol-4-yl]imidazole-2-carboxamide], the IC90 was found to be 524 nM.

With `Cn1c(-c2cn(CC(F)(F)F)nc2C(F)(F)F)cnc1C(=O)Nc1ccc(C(=O)N2CCN(C(=O)NC3CNC3)CC2)c(Cl)c1` [Example 149, N-(azetidin-3-yl)-4-[2-chloro-4-[[1-methyl-5-[1-(2,2,2-trifluoroethyl)-3-(trifluoromethyl)pyrazol-4-yl]imidazole-2-carbonyl]amino]benzoyl]piperazine-1-carboxamide], the IC90 is 550 nM.

With `Cn1c(-c2cn(C3CCC3)nc2C(F)(F)F)cnc1C(=O)Nc1ccc(C(=O)N2CCN(C(=O)NC3CNC3)CC2)c(Cl)c1` [Example 150, N-(azetidin-3-yl)-4-[2-chloro-4-[[5-[1-cyclobutyl-3-(trifluoromethyl)pyrazol-4-yl]-1-methylimidazole-2-carbonyl]amino]benzoyl]piperazine-1-carboxamide], the IC90 came out at 324 nM.

Regarding `Cn1c(-c2cn(CC#N)nc2C(F)(F)F)cnc1C(=O)Nc1ccc(C(=O)N2CCN(C(=O)NC3CNC3)CC2)c(Cl)c1` [Example 151], the IC90 was 475 nM.

Turning to `CCc1cc(NC(=O)c2ncc(-c3cn(CC(F)F)nc3C(F)(F)F)n2C)ccc1C(=O)N1CCN(C(=O)C2CCN(C)CC2)CC1` [Example 152, 5-[1-(2,2-difluoroethyl)-3-(trifluoromethyl)pyrazol-4-yl]-N-[3-ethyl-4-[4-(1-methylpiperidine-4-carbonyl)piperazine-1-carbonyl]phenyl]-1-methylimidazole-2-carboxamide], the IC90 turned out to be 1170 nM.

Consider `CCc1cc(NC(=O)c2ncc(-c3cn(CC(F)F)nc3C(F)(F)F)n2C)ccc1C(=O)N1CCN(C(=O)C2CNC2)CC1` [Example 153, N-[4-[4-(azetidine-3-carbonyl)piperazine-1-carbonyl]-3-ethylphenyl]-5-[1-(2,2-difluoroethyl)-3-(trifluoromethyl)pyrazol-4-yl]-1-methylimidazole-2-carboxamide;formic acid], for which the IC90 was 1000 nM.

On to `CCc1cc(NC(=O)c2ncc(-c3cn(CC(F)F)nc3C(F)(F)F)n2C)ccc1C(=O)N1CCN(C(=O)C2CCNCC2)CC1` [Example 154, 5-[1-(2,2-difluoroethyl)-3-(trifluoromethyl)pyrazol-4-yl]-N-[3-ethyl-4-[4-(piperidine-4-carbonyl)piperazine-1-carbonyl]phenyl]-1-methylimidazole-2-carboxamide;formic acid], for which the IC90 is 955 nM.

On to `CCc1cc(NC(=O)c2ncc(-c3cn(CC(F)F)nc3C(F)(F)F)n2C)ccc1C(=O)N1CCN(C(=O)C2(O)CCNCC2)CC1` [Example 155, 5-[1-(2,2-difluoroethyl)-3-(trifluoromethyl)pyrazol-4-yl]-N-[3-ethyl-4-[4-(4-hydroxypiperidine-4-carbonyl)piperazine-1-carbonyl]phenyl]-1-methylimidazole-2-carboxamide;formic acid], for which the IC90 was 1140 nM.

In the case of `CCc1cc(NC(=O)c2ncc(-c3cn(CC(F)F)nc3C(F)(F)F)n2C)ccc1C(=O)N1CCN(C(=O)[C@@H]2CCNC2)CC1` [Example 156, 5-[1-(2,2-difluoroethyl)-3-(trifluoromethyl)pyrazol-4-yl]-N-[3-ethyl-4-[4-[(3R)-pyrrolidine-3-carbonyl]piperazine-1-carbonyl]phenyl]-1-methylimidazole-2-carboxamide;formic acid], the IC90 was 758 nM.

As to `CCc1cc(NC(=O)c2ncc(-c3cn(CC(F)F)nc3C(F)(F)F)n2C)ccc1C(=O)N1CCN(C(=O)NCC2(O)CNC2)CC1` [Example 157, 4-[4-[[5-[1-(2,2-difluoroethyl)-3-(trifluoromethyl)pyrazol-4-yl]-1-methylimidazole-2-carbonyl]amino]-2-ethylbenzoyl]-N-[(3-hydroxyazetidin-3-yl)methyl]piperazine-1-carboxamide;formic acid], the concentration for an effect of 90% (IC90) came out at 1000 nM.

Consider `CCc1cc(NC(=O)c2ncc(-c3cn(Cc4cccnc4)nc3C(F)(F)F)n2C)ccc1C(=O)N1CCN(C(=O)C2CCN(C)CC2)CC1` [Example 158, N-[3-ethyl-4-[4-(1-methylpiperidine-4-carbonyl)piperazine-1-carbonyl]phenyl]-1-methyl-5-[1-(pyridin-3-ylmethyl)-3-(trifluoromethyl)pyrazol-4-yl]imidazole-2-carboxamide;formic acid], for which the IC90 stood at 1200 nM.

`CCc1cc(NC(=O)c2ncc(-c3cn(Cc4cccnc4)nc3C(F)(F)F)n2C)ccc1C(=O)N1CCN(C(=O)C2CCNCC2)CC1` [Example 159, N-[3-ethyl-4-[4-(piperidine-4-carbonyl)piperazine-1-carbonyl]phenyl]-1-methyl-5-[1-(pyridin-3-ylmethyl)-3-(trifluoromethyl)pyrazol-4-yl]imidazole-2-carboxamide;formic acid]: the 90% effect concentration (IC90) was found to be 1160 nM.

`CCc1cc(NC(=O)c2ncc(-c3cn(Cc4cccnc4)nc3C(F)(F)F)n2C)ccc1C(=O)N1CCN(C(=O)C2(O)CCNCC2)CC1` [Example 160, N-[3-ethyl-4-[4-(4-hydroxypiperidine-4-carbonyl)piperazine-1-carbonyl]phenyl]-1-methyl-5-[1-(pyridin-3-ylmethyl)-3-(trifluoromethyl)pyrazol-4-yl]imidazole-2-carboxamide;formic acid]: the IC90 worked out at 1500 nM.

Regarding `CCc1cc(NC(=O)c2ncc(-c3cn(Cc4cccnc4)nc3C(F)(F)F)n2C)ccc1C(=O)N1CCN(C(=O)[C@@H]2CCNC2)CC1` [Example 161, N-[3-ethyl-4-[4-[(3R)-pyrrolidine-3-carbonyl]piperazine-1-carbonyl]phenyl]-1-methyl-5-[1-(pyridin-3-ylmethyl)-3-(trifluoromethyl)pyrazol-4-yl]imidazole-2-carboxamide;formic acid], the IC90 is 1280 nM.

With `CCc1cc(NC(=O)c2ncc(-c3cn(Cc4cccnc4)nc3C(F)(F)F)n2C)ccc1C(=O)N1CCN(C(=O)NCC2(O)CNC2)CC1` [Example 162, 4-[2-ethyl-4-[[1-methyl-5-[1-(pyridin-3-ylmethyl)-3-(trifluoromethyl)pyrazol-4-yl]imidazole-2-carbonyl]amino]benzoyl]-N-[(3-hydroxyazetidin-3-yl)methyl]piperazine-1-carboxamide;formic acid], the IC90 turned out to be 1470 nM.

`CCn1cc(-c2cnc(C(=O)Nc3ccc(C(=O)N4CCN(C(=O)N[C@H]5C[C@@H](N)C5)CC4)c(Cl)c3)n2C)c(C(F)(F)F)n1` [Example 168, rac-N-((1s,3s)-3-aminocyclobutyl)-4-(2-chloro-4-(5-(1-ethyl-3-(trifluoromethyl)-1H-pyrazol-4-yl)-1-methyl-1H-imidazole-2-carboxamido)benzoyl)piperazine-1-carboxamide Hydrochloride]: the IC90 turned out to be 347 nM.

As to `CCc1cc(NC(=O)c2ncc(-c3cn(CC#N)nc3C(F)(F)F)n2C)ccc1C(=O)NCCOCC(C)(C)N` [Example 170, N-(4-((2-(2-amino-2-methylpropoxy)ethyl)carbamoyl)-3-ethylphenyl)-5-(1-(cyanomethyl)-3-(trifluoromethyl)-1H-pyrazol-4-yl)-1-methyl-1H-imidazole-2-carboxamide], the concentration for an effect of 90% (IC90) was 234 nM.

Turning to `C=Cn1cc(-c2cnc(C(=O)Nc3ccc(C(=O)N4CCN(C(=O)NC5CNC5)CC4)c(Cl)c3)n2C)c(C(F)(F)F)n1` [Example 171, N-(azetidin-3-yl)-4-(2-chloro-4-(1-methyl-5-(3-(trifluoromethyl)-1-vinyl-1H-pyrazol-4-yl)-1H-imidazole-2-carboxamido)benzoyl)piperazine-1-carboxamide], the IC90 came out at 207 nM.

On to `Cn1c(-c2cn(C3CC3(F)F)nc2C(F)(F)F)cnc1C(=O)Nc1ccc(C(=O)N[C@H]2[C@@H]3CN(C(=O)C4CCNCC4)C[C@@H]32)c(Cl)c1` (stereo partly drawn) [Example 172, N-(3-chloro-4-(((1R,5S,6s)-3-(piperidine-4-carbonyl)-3-azabicyclo[3.1.0]hexan-6-yl)carbamoyl)phenyl)-5-(1-(2,2-difluorocyclopropyl)-3-(trifluoromethyl)-1H-pyrazol-4-yl)-1-methyl-1H-imidazole-2-carboxamide formate], for which the IC90 came to 146 nM.

Staying with this assay, now noted: Acinetobacter baumannii, ATCC17961, read-out: ATCC 17961 IC90, Acinetobacter baumannii ATCC 17961, Iso-Sensitest broth.
On to `Cn1c(-c2cn(CC3CC3)nc2C(F)(F)F)cnc1C(=O)Nc1ccc(C(=O)N2CCN(C(=O)N[C@H]3C[C@@H](N)C3)CC2)c(Cl)c1` [Example 169, rac-N-((1s,3s)-3-aminocyclobutyl)-4-(2-chloro-4-(5-(1-(cyclopropylmethyl)-3-(trifluoromethyl)-1H-pyrazol-4-yl)-1-methyl-1H-imidazole-2-carboxamido)benzoyl)piperazine-1-carboxamide Hydrochloride], for which the IC90 was 245 nM.

In general, IC90 refers to the concentration needed for an effect of 90%.

The record behind these values is patent publication US11390604B2 (Hoffmann-La Roche Inc., priority 2019, dated 2022).
